Like-named read-outs stand apart in the source and are kept apart here.
How the values were obtained:
FLT3(ITD) = target: T1, FLT3(ITD) (Homo sapiens, UniProt P36888); assay type: binding
T1 construct: In general, full-length constructs were used for small, single domain kinases, and catalytic domain constructs for large multi-domain kinases; fused on or other part: T7 phage fusion or DNA tag for qPCR detection (general statement)
T1 sequence (P36888 1-993): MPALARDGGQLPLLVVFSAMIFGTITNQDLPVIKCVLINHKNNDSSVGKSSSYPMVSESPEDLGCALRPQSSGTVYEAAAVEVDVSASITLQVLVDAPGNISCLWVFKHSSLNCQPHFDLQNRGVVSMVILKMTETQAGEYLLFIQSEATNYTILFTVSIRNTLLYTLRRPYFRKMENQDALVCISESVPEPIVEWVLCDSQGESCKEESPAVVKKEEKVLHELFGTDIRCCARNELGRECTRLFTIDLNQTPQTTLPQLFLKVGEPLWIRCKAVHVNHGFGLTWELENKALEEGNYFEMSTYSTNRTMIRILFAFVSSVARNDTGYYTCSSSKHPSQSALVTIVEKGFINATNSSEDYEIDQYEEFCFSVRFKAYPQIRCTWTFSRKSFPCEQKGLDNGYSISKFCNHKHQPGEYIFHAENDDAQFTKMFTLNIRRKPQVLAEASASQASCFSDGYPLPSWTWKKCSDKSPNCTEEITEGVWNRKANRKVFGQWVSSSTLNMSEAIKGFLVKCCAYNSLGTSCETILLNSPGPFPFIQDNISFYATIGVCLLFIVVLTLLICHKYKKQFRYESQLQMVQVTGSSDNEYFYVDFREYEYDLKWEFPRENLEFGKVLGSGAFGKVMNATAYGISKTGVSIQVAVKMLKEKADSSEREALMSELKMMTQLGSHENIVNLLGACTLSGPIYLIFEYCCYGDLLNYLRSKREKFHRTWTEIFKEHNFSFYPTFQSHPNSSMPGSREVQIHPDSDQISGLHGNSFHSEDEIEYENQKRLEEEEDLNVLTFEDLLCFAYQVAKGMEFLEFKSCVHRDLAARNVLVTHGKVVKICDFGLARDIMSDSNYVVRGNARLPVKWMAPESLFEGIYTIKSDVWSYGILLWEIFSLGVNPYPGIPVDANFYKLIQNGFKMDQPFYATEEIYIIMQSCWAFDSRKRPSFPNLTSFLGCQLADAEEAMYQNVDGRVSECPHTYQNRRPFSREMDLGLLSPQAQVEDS
Description: (§1) Cannabis flavonoids and their analogs were subjected to kinase inhibition assay. The compounds were first screened at a single concentration of 10 μM in the primary assay. […] To determine the kd or IC50 values, competition binding assays were established, authenticated and executed as described previously. […] See also, Karaman et al., “A Quantitative Analysis Of Kinase Inhibitor Selectivity”, Nat. Biotechnol. […] For most assays, kinases were fused to T7 phage strains (Fabian, supra) and for the other assays, kinases were produced in HEK-293 cells after which they were tagged with DNA for quantitative PCR detection. In general, full-length constructs were used for small, single domain kinases, and catalytic domain constructs for large multi-domain kinases. […] The liganded beads were blocked with excess biotin and washed with blocking buffer (SeaBlock (Pierce), 1% BSA, 0.05% Tween 20, 1 mM DTT) to remove unbound ligand and to reduce non-specific phage binding. […] All reactions were performed in polypropylene 384-well plates in a final volume of 0.04 ml. […] The kinase concentration in the eluates was measured by quantitative PCR. An illustration of the kinase interaction process is presented below. Kd/IC50 values were determined using a standard dose response curve using the hill equation. Curves were fitted using a non-linear least square fit with the Levenberg-Marquardt algorithm.

FLT3 = target: T2, FLT3 (Homo sapiens, UniProt P36888); assay type: binding
T2 construct: made in house
T2 sequence (P36888 27-993): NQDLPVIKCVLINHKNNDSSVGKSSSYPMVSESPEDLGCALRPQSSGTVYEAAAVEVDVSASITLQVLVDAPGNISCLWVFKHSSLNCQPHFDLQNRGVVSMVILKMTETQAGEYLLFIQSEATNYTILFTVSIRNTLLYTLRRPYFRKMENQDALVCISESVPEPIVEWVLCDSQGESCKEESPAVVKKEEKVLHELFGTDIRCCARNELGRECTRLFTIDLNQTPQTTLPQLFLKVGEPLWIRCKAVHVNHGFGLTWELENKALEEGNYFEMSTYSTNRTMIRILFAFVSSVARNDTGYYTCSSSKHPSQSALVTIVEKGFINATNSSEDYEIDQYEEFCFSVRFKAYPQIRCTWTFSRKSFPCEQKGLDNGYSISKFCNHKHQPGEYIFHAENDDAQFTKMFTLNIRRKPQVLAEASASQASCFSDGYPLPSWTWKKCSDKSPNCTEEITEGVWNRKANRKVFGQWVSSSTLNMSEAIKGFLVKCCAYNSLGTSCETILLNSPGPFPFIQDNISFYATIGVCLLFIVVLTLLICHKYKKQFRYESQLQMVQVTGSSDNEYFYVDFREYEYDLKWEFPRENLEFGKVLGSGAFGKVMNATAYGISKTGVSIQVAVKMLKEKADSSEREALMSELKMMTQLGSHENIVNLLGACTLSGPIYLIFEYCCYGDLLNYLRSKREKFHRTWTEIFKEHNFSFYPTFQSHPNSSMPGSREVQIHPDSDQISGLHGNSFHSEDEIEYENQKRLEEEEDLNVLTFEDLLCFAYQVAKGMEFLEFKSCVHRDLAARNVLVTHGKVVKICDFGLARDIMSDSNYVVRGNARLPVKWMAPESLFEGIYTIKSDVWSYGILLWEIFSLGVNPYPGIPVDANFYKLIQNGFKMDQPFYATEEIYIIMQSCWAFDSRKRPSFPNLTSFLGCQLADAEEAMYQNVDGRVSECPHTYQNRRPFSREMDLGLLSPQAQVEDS
Description: as §1

[1] = Table 1 kinase panel, read-out: IC50 (nM) FLT3(ITD)
[2] = Table 1 kinase panel, read-out: IC50 (nM) FLT3
[3] = Table 4, read-out: Acute Myeloid Leukemia Kinases FLT3-ITD IC50
[4] = Table 4, read-out: Acute Myeloid Leukemia Kinases FLT3 IC50

Compound | IC50 (FLT3(ITD); [1]) [nM] | IC50 (FLT3; [2]) [nM] | IC50 (FLT3(ITD); [3]) [nM] | IC50 (FLT3; [4]) [nM]
COc1cc(-c2cc(=O)c3c(O)c(C/C=C(\C)CCC=C(C)C)c(O)cc3o2)ccc1O [FBL-03A] | > 20000 | > 20000 | – | –
COc1cc(-c2cc(=O)c3c(O)c(CC=C(C)C)c(O)cc3o2)ccc1O [FBL-03B] | 57 | 41.9 | – | –
COc1cc(-c2cc(=O)c3c(O)cc(O)c(C/C=C(\C)CCC=C(C)C)c3o2)ccc1O [FBL-03C] | > 20000 | > 20000 | – | –
COc1ccc(-c2cc(=O)c3c(O)c(C/C=C(\C)CCC=C(C)C)c(O)cc3o2)cc1OC [FBL-03D] | > 30000 | > 30000 | – | –
COc1cc(-c2cc(=O)c3c(O)cc(O)c(CC=C(C)C)c3o2)ccc1O [FBL-03G] | < 1000 | 44 | – | –
COc1ccc(C2CC(=O)c3c(O)cc(O)cc3O2)cc1O (stereo not drawn) [FBLGS-74] | – | – | 9090 | 16600
O=c1cc(-c2ccccc2)oc2cc(O)cc(O)c12 [FBLGS-75] | – | – | 91 | 220
Cc1cc2oc(-c3cccc(N)c3)cc(=O)c2c([N+](=O)[O-])c1C [FBLGS-76] | – | – | 750 | 870
O=c1cc(-c2ccc(O)c(O)c2)oc2cc(O)cc(O)c12 [FBLGS-77] | – | – | 799 | 1320
COc1cc(O)c2c(=O)c(O)c(-c3ccc(O)c(O)c3)oc2c1 [FBLGS-78] | – | – | 345 | 307
COc1cc(O)c2c(=O)c(O)c(-c3ccc(O)c(O)c3)oc2c1 [FBLGS-79] | – | – | 84 | 25
COc1cc(O)c2c(=O)c(O)c(-c3ccc(O)c(OC)c3)oc2c1 [FBLGS-80] | – | – | 84 | 60
COc1cc(-c2oc3cc(O)ccc3c(=O)c2O)ccc1O [FBLGS-81] | – | – | 3.8 | 1.9
O=C1CC(c2ccc(O)c(O)c2)Oc2cc(O)cc(O)c21 (stereo not drawn) [FBLGS-82] | – | – | 12100 | 17400
O=c1c(O)c(-c2ccc(O)c(O)c2)oc2cc(O)ccc12 [FBLGS-83] | – | – | 180 | 578
O=c1c(O)c(-c2ccc(O)c(O)c2)oc2cc(O)cc(O)c12 [FBLGS-84] | – | – | 453 | 822
COc1cc(-c2cc(=O)c3c(O)c(OC)c(OC)cc3o2)ccc1O [FBLGS-85] | – | – | 57 | 50
COc1cc(-c2cc(=O)c3c(O)c(OC)c(O)cc3o2)ccc1O [FBLGS-86] | – | – | 45 | 74
